We go through one compound from ChEMBL document CHEMBL4385605, “Synthesis and Structure-Affinity Relationships of Spirocyclic Benzopyrans with Exocyclic Amino Moiety” (J Med Chem, 2019).

Molecules are shown by their SMILES. pKi: −log10 of the molar value. Activity calls are given as the source filed them. No cut-off for these calls is given here.

Data set [1] addresses Sigma non-opioid intracellular receptor 1 (Cavia porcellus, UniProt Q60492). Description: Displacement of [3H](+)-pentazocine from sigma 1 receptor in guinea pig brain cortex membranes after 120 mins by scintillation counting analysis. Format: cell membranes.
Data set [2] can be described thus: Selectivity ratio of Ki for displacement of [3H]DTG from sigma2 receptor in rat liver membranes to Ki for displacement of (+)-[3H]pentazocine from sigma 1 receptor in guinea pig brain cortex membranes. Format: cell membranes. A general note: In a radioligand displacement assay an active substance lowers the binding of a labelled ligand.
Data set [3] has as its target Sigma non-opioid intracellular receptor 1 (Homo sapiens, UniProt Q99720). Description: Displacement of [3H](+)-pentazocine from sigma 1 receptor in human RPMI8226 cell membranes incubated for 2 hrs under shaking by scintillation counting analysis.
Data set [4] deals with Sigma non-opioid intracellular receptor 1 (Rattus norvegicus) (UniProt Q9R0C9). Put plainly: Agonist activity at sigma 1 receptor in rat PC12 cells assessed as effect on KCl-induced intracellular calcium flux by fura-2-AM dye based fluorescence assay. Format: cell-based.
The target in data set [5] is Sigma intracellular receptor 2 (Homo sapiens, UniProt Q5BJF2). Description: Displacement of [3H]-di-o-tolylguanidine from sigma2 receptor in human RT4 cell membranes incubated for 120 mins in the presence of sigma1 receptor ligand (+)-pentazocine by scintillation counting method.
For data set [6], the species on record is Sus scrofa. Put plainly: Displacement of [3H]-(+)-MK-801 from PCP binding site of NMDA receptor in pig brain cortex membranes up to 1 uM after 120 mins by scintillation counting analysis. It is filed as cell membranes.
The target in data set [7] is CYP2D6 (Homo sapiens, UniProt P10635). Description: Inhibition of recombinant human CYP2D6 at 1 uM by fluorescence assay relative to control. It is filed as ADME.
The subject of data set [8] is HepG2. Description: Cytotoxicity against human HepG2 cells at 1 to 100 uM incubated for 20 hrs under serum free condition by neutral red uptake assay. Format: cell-based. As to conditions: hepg2, 20 h.
Data set [9] concerns the target Cytochrome P450 2C9 (Homo sapiens, UniProt P11712). Put plainly: Inhibition of recombinant human CYP2C9 at 1 uM by fluorescence assay. It is filed as ADME. As to conditions: recombinant enzyme.
The nature of data set [10]: Metabolic stability in human liver microsomes assessed as parent compound remaining at 1 uM in the presence of NADPH regenerating system after 60 mins by UPLC/MS analysis. Format: ADME, Microsome. As to conditions: read-out: Stability.
Data set [11] concerns the target Sigma non-opioid intracellular receptor 1 (Rattus norvegicus) (UniProt Q9R0C9). Put plainly: Antagonist activity at sigma 1 receptor in rat PC12 cells assessed as suppression of opipramol-induced inhibition of KCl-stimulated intracellular calcium influx at 10 nM preincubated for 5 mins followed by opipramol addition for 5 mins and subsequent KCl-stimulation by fura-2-AM dye based fluorescence assay. Format: cell-based. A general note: A change in cytosolic calcium serves as a functional read-out for many receptors and channels.

For data set [12], the target named is Sodium-dependent dopamine transporter (Homo sapiens) (UniProt Q01959). Put plainly: Binding affinity to dopamine transporter (unknown origin) at 1 uM.
Sodium-dependent dopamine transporter (Homo sapiens), sequence (Q01959 whole entry): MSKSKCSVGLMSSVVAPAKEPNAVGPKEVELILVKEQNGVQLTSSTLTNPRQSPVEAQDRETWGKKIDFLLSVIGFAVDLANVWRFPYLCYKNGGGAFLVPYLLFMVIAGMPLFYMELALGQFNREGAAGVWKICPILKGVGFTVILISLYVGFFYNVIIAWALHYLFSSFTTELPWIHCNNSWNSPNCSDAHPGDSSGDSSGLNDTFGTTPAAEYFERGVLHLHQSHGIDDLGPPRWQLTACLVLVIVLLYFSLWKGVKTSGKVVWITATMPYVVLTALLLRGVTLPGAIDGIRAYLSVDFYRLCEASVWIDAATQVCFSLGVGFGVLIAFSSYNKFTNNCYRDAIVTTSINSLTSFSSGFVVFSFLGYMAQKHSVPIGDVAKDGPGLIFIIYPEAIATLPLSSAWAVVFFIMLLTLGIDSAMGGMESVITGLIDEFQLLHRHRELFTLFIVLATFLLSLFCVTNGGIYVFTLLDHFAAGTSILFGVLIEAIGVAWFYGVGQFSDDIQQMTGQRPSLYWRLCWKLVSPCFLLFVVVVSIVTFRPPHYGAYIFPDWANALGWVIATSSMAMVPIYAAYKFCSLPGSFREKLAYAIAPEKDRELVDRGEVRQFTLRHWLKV

Sigma non-opioid intracellular receptor 1 (Rattus norvegicus), sequence (Q9R0C9 whole entry): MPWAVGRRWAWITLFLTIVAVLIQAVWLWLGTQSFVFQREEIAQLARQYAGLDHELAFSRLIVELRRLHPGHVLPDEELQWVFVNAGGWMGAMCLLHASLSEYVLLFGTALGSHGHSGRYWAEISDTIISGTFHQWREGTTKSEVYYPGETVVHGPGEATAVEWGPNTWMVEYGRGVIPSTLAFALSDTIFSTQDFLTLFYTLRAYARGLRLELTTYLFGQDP
Sigma non-opioid intracellular receptor 1 (Cavia porcellus, UniProt Q60492), sequence (Q60492 whole entry): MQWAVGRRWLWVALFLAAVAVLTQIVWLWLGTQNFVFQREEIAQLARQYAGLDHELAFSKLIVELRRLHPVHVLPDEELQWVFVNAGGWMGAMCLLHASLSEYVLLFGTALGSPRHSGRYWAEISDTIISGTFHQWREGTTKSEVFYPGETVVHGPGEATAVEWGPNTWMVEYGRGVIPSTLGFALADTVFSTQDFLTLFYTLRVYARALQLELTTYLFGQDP
Cytochrome P450 2C9, sequence (P11712 whole entry): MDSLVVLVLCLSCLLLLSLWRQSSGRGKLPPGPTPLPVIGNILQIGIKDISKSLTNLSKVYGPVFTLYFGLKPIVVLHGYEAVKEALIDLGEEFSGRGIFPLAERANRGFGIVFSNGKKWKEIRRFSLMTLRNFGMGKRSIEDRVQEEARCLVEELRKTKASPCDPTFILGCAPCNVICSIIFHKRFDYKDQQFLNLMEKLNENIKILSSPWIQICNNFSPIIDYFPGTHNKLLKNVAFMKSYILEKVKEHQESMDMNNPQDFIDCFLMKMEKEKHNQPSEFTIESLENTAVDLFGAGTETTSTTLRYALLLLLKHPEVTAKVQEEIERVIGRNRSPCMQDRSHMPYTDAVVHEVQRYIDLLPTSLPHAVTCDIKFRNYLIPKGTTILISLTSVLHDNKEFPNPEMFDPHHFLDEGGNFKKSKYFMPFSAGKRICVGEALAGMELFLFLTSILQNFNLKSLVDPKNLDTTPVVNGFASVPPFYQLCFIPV
Sigma intracellular receptor 2, sequence (Q5BJF2 whole entry): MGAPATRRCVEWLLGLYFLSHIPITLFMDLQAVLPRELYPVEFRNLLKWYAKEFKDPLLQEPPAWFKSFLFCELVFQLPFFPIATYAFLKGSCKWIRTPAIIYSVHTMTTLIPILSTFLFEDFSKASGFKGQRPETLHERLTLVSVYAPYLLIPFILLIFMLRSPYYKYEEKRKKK
Sigma non-opioid intracellular receptor 1 (Homo sapiens, UniProt Q99720), sequence (Q99720 whole entry): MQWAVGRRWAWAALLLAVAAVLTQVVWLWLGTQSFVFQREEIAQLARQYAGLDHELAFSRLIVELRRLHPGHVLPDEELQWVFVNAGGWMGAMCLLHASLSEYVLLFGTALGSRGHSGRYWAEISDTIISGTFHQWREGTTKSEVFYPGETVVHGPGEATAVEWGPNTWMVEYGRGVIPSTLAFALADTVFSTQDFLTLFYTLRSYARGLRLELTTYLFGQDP
CYP2D6, sequence (P10635 whole entry): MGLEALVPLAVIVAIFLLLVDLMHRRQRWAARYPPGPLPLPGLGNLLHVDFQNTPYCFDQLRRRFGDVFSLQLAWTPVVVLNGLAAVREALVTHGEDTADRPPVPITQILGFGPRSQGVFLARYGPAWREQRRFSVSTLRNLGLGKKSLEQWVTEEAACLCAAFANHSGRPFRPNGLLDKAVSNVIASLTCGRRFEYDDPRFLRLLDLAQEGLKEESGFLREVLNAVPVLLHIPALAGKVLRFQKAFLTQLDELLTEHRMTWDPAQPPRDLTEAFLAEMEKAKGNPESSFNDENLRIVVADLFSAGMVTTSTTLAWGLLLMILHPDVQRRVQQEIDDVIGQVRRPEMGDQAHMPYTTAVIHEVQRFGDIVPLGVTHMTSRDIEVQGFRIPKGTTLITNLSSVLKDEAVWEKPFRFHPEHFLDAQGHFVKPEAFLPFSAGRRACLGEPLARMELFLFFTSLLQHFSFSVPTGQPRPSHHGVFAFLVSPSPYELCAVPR

As usually defined, the pKi is the negative decadic logarithm of the Ki, by convention in mol/L. In general, inhibition refers to the drop in the measured response relative to a control, in per cent. As for `COC1Cc2ccccc2[C@]2(CC[C@H](N(C)CC3CCCCC3)CC2)O1` (some centres not stated), the pKi in data set [1] was 8.72; in data set [3], 8.14; in data set [5] it was 7.89. Also, the Ratio Ki in data set [2] is 5 to 10. The outcome in [4], in data set [6] and in [12] was inactive. The inhibition at 1 µM in [7] is greater than 90%. For the same compound, in data set [8], the Activity result is recorded as “Non-Toxic”. In addition, the “inhibition (INH)” value in data set [9] is “Not Active”. Besides, the remaining at 1 h, 1 µM in [10] was greater than 50%. Further, the inhibition result in [11] is “Active”.
